Measurements published in ChEMBL document CHEMBL4177696, “Identification of a diverse synthetic abietane diterpenoid library and insight into the structure-activity relationships for antibacterial activity” (Bioorg Med Chem Lett, 2017).
In brackets after ≈: the same amount, converted by molar mass.

Key:
Type in all cases: functional
[1] = tested on: Staphylococcus aureus; assay: Antibacterial activity against Staphylococcus aureus measured after 24 hrs
[2] = tested on: Bacillus subtilis; assay: Antibacterial activity against Bacillus subtilis measured after 24 hrs
[3] = tested on: Escherichia coli; assay: Antibacterial activity against Escherichia coli measured after 24 hrs
[4] = tested on: Pseudomonas fluorescens; assay: Antibacterial activity against Pseudomonas fluorescens measured after 24 hrs

Row | SMILES | MIC [1] [µg/mL] | MIC [2] [µg/mL] | MIC [3] [µg/mL] | MIC [4] [µg/mL]
1 | COC(=O)[C@]1(C)CCC[C@]2(C)c3ccc(C(C)C)c(NC(=O)Cn4cc(C5CC5)nn4)c3CC[C@@H]12 | 50 (≈ 104 µM) | 75 (≈ 157 µM) | 6.3 (≈ 13.2 µM) | 75 (≈ 157 µM)
2 | COc1c(C(C)C)ccc2c1CC[C@H]1[C@@H](O)CCC[C@]21CO[N+](=O)[O-] | 100 (≈ 286 µM) | 75 (≈ 215 µM) | 100 (≈ 286 µM) | 25 (≈ 71.5 µM)
3 | COC(=O)[C@]1(C)CCC[C@]2(C)c3ccc(C(C)C)c(NC(=O)Cn4cc(-c5ccccn5)nn4)c3CC[C@@H]12 | 25 (≈ 48.5 µM) | 12.5 (≈ 24.2 µM) | 12.5 (≈ 24.2 µM) | 12.5 (≈ 24.2 µM)
4 | C=C1C(=O)CC[C@]2(C)c3ccc(C(C)C)c(OC)c3CC[C@@H]12 | 25 (≈ 83.8 µM) | 12.5 (≈ 41.9 µM) | 6.3 (≈ 21.1 µM) | 25 (≈ 83.8 µM)
5 | COC(=O)c1ccc(-c2cn(CC(=O)Nc3c(C(C)C)ccc4c3CC[C@H]3[C@](C)(C(=O)OC)CCC[C@]43C)nn2)cc1 | 12.5 (≈ 21.8 µM) | 12.5 (≈ 21.8 µM) | 6.3 (≈ 11 µM) | 25 (≈ 43.7 µM)
6 | COC(=O)[C@]1(C)CCC[C@]2(C)c3ccc(C(C)C)c(NC(=O)Cn4cc([Si](C)(C)C)nn4)c3CC[C@@H]12 | 75 (≈ 147 µM) | 100 (≈ 196 µM) | 75 (≈ 147 µM) | 100 (≈ 196 µM)
7 | COC(=O)[C@]1(C)CCC[C@]2(C)c3ccc(C(C)C)c(NC(=O)Cn4cc(-c5ccccc5F)nn4)c3CC[C@@H]12 | 25 (≈ 46.9 µM) | 50 (≈ 93.9 µM) | 25 (≈ 46.9 µM) | 12.5 (≈ 23.5 µM)
8 | COC(=O)[C@]1(C)CCC[C@]2(C)c3ccc(C(C)C)c(NC(=O)Cn4cc(C(O)c5ccccc5)nn4)c3CC[C@@H]12 (some centres not stated) | 25 (≈ 45.9 µM) | 75 (≈ 138 µM) | 50 (≈ 91.8 µM) | 75 (≈ 138 µM)
9 | COC(=O)[C@]1(C)CCC[C@@]2(C)[C@H]1CC=C1[C@@H]2CC[C@](O)(C(C)C)[C@H]1O | 75 (≈ 214 µM) | 75 (≈ 214 µM) | 100 (≈ 285 µM) | 75 (≈ 214 µM)
10 | COC(=O)c1nnn(CC(=O)Nc2c(C(C)C)ccc3c2CC[C@H]2[C@](C)(C(=O)OC)CCC[C@]32C)c1C(=O)OC | 25 (≈ 45.1 µM) | 75 (≈ 135 µM) | 25 (≈ 45.1 µM) | 50 (≈ 90.1 µM)
11 | COC(=O)[C@]1(C)CCC[C@]2(C)c3ccc(C(C)C)c(NC(=O)Cn4cc(CNC(=O)OC(C)(C)C)nn4)c3CC[C@@H]12 | 75 (≈ 132 µM) | 50 (≈ 88.1 µM) | 100 (≈ 176 µM) | 25 (≈ 44 µM)
12 | COC(=O)[C@]1(C)CCC[C@]2(C)c3ccc(C(C)C)c(NC(=O)Cn4cc(-c5cccc(Cl)c5)nn4)c3CC[C@@H]12 | 50 (≈ 91.1 µM) | 12.5 (≈ 22.8 µM) | 12.5 (≈ 22.8 µM) | 25 (≈ 45.5 µM)
13 | C=C1C(CO)=CC[C@]2(C)c3ccc(C(C)C)c(OC)c3CC[C@@H]12 | 75 (≈ 240 µM) | 100 (≈ 320 µM) | 100 (≈ 320 µM) | 75 (≈ 240 µM)
14 | COC(=O)[C@]1(C)CCC[C@]2(C)c3ccc(C(C)C)c(NC(=O)Cn4cc(-c5cc(OC)cc(OC)c5)nn4)c3CC[C@@H]12 | 25 (≈ 43.5 µM) | 100 (≈ 174 µM) | 75 (≈ 130 µM) | 75 (≈ 130 µM)
15 | COc1cccc2c1CC[C@H]1[C@@H](CO)[C@H](O[Si](C)(C)C(C)(C)C)CC[C@]21C | 100 (≈ 256 µM) | 100 (≈ 256 µM) | 100 (≈ 256 µM) | 75 (≈ 192 µM)
16 | COC(=O)[C@]1(C)CCC[C@]2(C)c3ccc(C(C)C)c(O)c3CC[C@@H]12 | 50 (≈ 151 µM) | 75 (≈ 227 µM) | 50 (≈ 151 µM) | 25 (≈ 75.7 µM)
17 | CCOCOC[C@]12CCC3=C(COC3=O)[C@@H]1CCc1c2ccc(C(C)C)c1OC | 100 (≈ 250 µM) | 100 (≈ 250 µM) | 100 (≈ 250 µM) | 100 (≈ 250 µM)
18 | CC(C)c1ccc2c(c1O)CC[C@H]1C3=C(CC[C@]21C)C(=O)OC3 [TRIPTOPHENOLIDE] | 75 (≈ 240 µM) | 50 (≈ 160 µM) | 100 (≈ 320 µM) | 75 (≈ 240 µM)
19 | COC(=O)[C@]1(C)CCC[C@]2(C)c3ccc(C(C)C)c(NC(=O)Cn4cc(-c5nc(Cl)nc(Cl)n5)nn4)c3CC[C@@H]12 | 12.5 (≈ 21.3 µM) | 25 (≈ 42.6 µM) | 6.3 (≈ 10.7 µM) | 12.5 (≈ 21.3 µM)

Row | SMILES | MIC [1] [µg/mL] | MIC [2] [µg/mL] | MIC [3] [µg/mL] | MIC [4] [µg/mL]
20 | CCCCCOc1ccc(-c2cn(CC(=O)Nc3c(C(C)C)ccc4c3CC[C@H]3[C@](C)(C(=O)OC)CCC[C@]43C)nn2)cc1 | 100 (≈ 166 µM) | 75 (≈ 125 µM) | 75 (≈ 125 µM) | 75 (≈ 125 µM)
21 | COC(=O)[C@]1(C)CCC[C@]2(C)c3ccc(C(C)C)c(NC(=O)Cn4cc(-c5cccc(NC(=O)OC(C)(C)C)c5)nn4)c3CC[C@@H]12 | 6.3 (≈ 10 µM) | 12.5 (≈ 19.8 µM) | 12.5 (≈ 19.8 µM) | 25 (≈ 39.7 µM)
22 | COC(=O)[C@]1(C)CCC[C@]2(C)c3ccc(C(C)C)c(NC(=O)Cn4cc(-c5ccccc5)nn4)c3CC[C@@H]12 | 50 (≈ 97.1 µM) | 25 (≈ 48.6 µM) | 25 (≈ 48.6 µM) | 50 (≈ 97.1 µM)
23 | COC(=O)[C@]1(C)CCC[C@]2(C)c3ccc(C(C)C)c(NC(=O)Cn4cc(-c5ccc(C#N)cc5)nn4)c3CC[C@@H]12 | 25 (≈ 46.3 µM) | 12.5 (≈ 23.2 µM) | 12.5 (≈ 23.2 µM) | 25 (≈ 46.3 µM)
24 | COC(=O)[C@]1(C)CCC[C@]2(C)c3ccc(C(C)C)c(NC(=O)Cn4cc(-c5ccc(Br)cc5)nn4)c3CC[C@@H]12 | 25 (≈ 42.1 µM) | 12.5 (≈ 21.1 µM) | 25 (≈ 42.1 µM) | 6.3 (≈ 10.6 µM)
25 | C=C1[C@@H]2CCc3c(ccc(C(C)C)c3OC)[C@@]2(C)CC[C@@]1(O)CO | 50 (≈ 151 µM) | 25 (≈ 75.7 µM) | 50 (≈ 151 µM) | 25 (≈ 75.7 µM)
26 | CC(C)(C)C(=O)OC[C@H]1[C@H](O)CC[C@]2(C)c3ccccc3CC[C@@H]12 | 25 (≈ 75.7 µM) | 50 (≈ 151 µM) | 25 (≈ 75.7 µM) | 25 (≈ 75.7 µM)
27 | COC(=O)[C@]1(C)CCC[C@]2(C)c3ccc(C(C)C)c(NC(=O)Cn4cc(-c5ccccc5OC)nn4)c3CC[C@@H]12 | 75 (≈ 138 µM) | 50 (≈ 91.8 µM) | 75 (≈ 138 µM) | 25 (≈ 45.9 µM)
28 | COC(=O)[C@]1(C)CCC[C@]2(C)c3ccc(C(C)C)c(NC(=O)Cn4cc(-c5cccc(F)c5)nn4)c3CC[C@@H]12 | 12.5 (≈ 23.5 µM) | 6.3 (≈ 11.8 µM) | 25 (≈ 46.9 µM) | 12.5 (≈ 23.5 µM)
29 | CC(C)C1=CC2=CC[C@@H]3[C@](C)(CCC[C@@]3(C)C(=O)O)[C@H]2CC1 [ABIETIC ACID] | 25 (≈ 82.7 µM) | 50 (≈ 165 µM) | 50 (≈ 165 µM) | 25 (≈ 82.7 µM)
30 | COC(=O)[C@]1(C)CCC[C@]2(C)c3ccc(C(C)C)c(OC)c3CC[C@@H]12 | 75 (≈ 218 µM) | 75 (≈ 218 µM) | 100 (≈ 290 µM) | 75 (≈ 218 µM)
31 | COC(=O)[C@]1(C)CCC[C@]2(C)c3ccc(C(C)C)c(NC(=O)Cn4cc(-c5ccc(OCc6ccccc6)cc5)nn4)c3CC[C@@H]12 | 50 (≈ 80.5 µM) | 50 (≈ 80.5 µM) | 75 (≈ 121 µM) | 75 (≈ 121 µM)
32 | COc1c(C(C)C)ccc2c1CC[C@H]1[C@@H](O)CCC[C@]21C | 100 (≈ 347 µM) | 100 (≈ 347 µM) | 75 (≈ 260 µM) | 100 (≈ 347 µM)
33 | COC(=O)[C@]1(C)CCC[C@]2(C)c3ccc(C(C)C)c(NC(=O)Cn4cc(-c5cc(Cl)cc(Cl)c5)nn4)c3CC[C@@H]12 | 25 (≈ 42.8 µM) | 25 (≈ 42.8 µM) | 25 (≈ 42.8 µM) | 50 (≈ 85.7 µM)
34 | COc1c(C(C)C)ccc2c1CC[C@H]1C3=C(CC[C@]21C)C(=O)OC3 | 100 (≈ 306 µM) | 100 (≈ 306 µM) | 100 (≈ 306 µM) | 100 (≈ 306 µM)
35 | COC(=O)[C@]1(C)CCC[C@]2(C)c3ccc(C(C)C)c(NC(=O)Cn4cc(-c5ccc(-c6ccccc6)cc5)nn4)c3CC[C@@H]12 | 50 (≈ 84.6 µM) | 75 (≈ 127 µM) | 25 (≈ 42.3 µM) | 50 (≈ 84.6 µM)
36 | CC(C)c1ccc2c(c1)CC[C@H]1[C@](C)(C(=O)O)CCC[C@]21C [DEHYDROABIETIC ACID] | 25 (≈ 83.2 µM) | 50 (≈ 166 µM) | 75 (≈ 250 µM) | 50 (≈ 166 µM)
37 | COc1c(C(C)C)ccc2c1CC[C@H]1[C@@H]3COC(=O)[C@]3(O)CC[C@]21C | 100 (≈ 290 µM) | 100 (≈ 290 µM) | 50 (≈ 145 µM) | 100 (≈ 290 µM)
38 | COc1ccc(COC[C@H]2[C@H](O)CC[C@]3(C)c4cccc(OC)c4CC[C@@H]23)cc1 | 25 (≈ 63 µM) | 50 (≈ 126 µM) | 25 (≈ 63 µM) | 25 (≈ 63 µM)
